For two compounds, zone of inhibition results are on record in ChEMBL document CHEMBL3045679, “Microwave-assisted synthesis and pharmacological studies of novel 5-deazaalloxazine derivatives” (2012).

Common to all, as to type: functional
One test has as its system Aspergillus niger. Kind of test: Antifungal activity against Aspergillus niger NCIM 1196 at 10 ug/disk after 72 hr by disk diffusion method. The conditions noted are these: NCIM 1196, 72 h, read-out: DIZ. For orientation: Agar diffusion results depend on both activity and mobility in agar.
In a further test the test system is Candida albicans. The test can be described thus: Antifungal activity against Candida albicans NCIM 3471 at 10 ug/disk after 72 hr by disk diffusion method. The conditions noted are these: NCIM 3471, 72 h, read-out: DIZ.
In a further test the test system is Lipomyces lipofer. Kind of test: Antifungal activity against Lipomyces lipofer NCIM 3252 at 10 ug/disk after 72 hr by disk diffusion method. The conditions noted are these: NCIM 3252, 72 h, read-out: DIZ.
The next test concerns Aspergillus flavus. The test can be described thus: Antifungal activity against Aspergillus flavus NCIM 535 at 10 ug/disk after 72 hr by disk diffusion method. The conditions noted are these: NCIM 535, 72 h, read-out: DIZ.
Another test concerns Rhodotorula mucilaginosa. The test can be described thus: Antifungal activity against Rhodotorula mucilaginosa NCIM 3174 at 10 ug/disk after 72 hr by disk diffusion method. The settings on record: NCIM 3174, 72 h, read-out: DIZ.
Another test concerns Penicillium chrysogenum. Kind of test: Antifungal activity against Penicillium chrysogenum NCIM 707 at 10 ug/disk after 72 hr by disk diffusion method. The conditions noted are these: NCIM 707, 72 h, read-out: DIZ.
A further test deals with Klebsiella aerogenes. Kind of test: Antibacterial activity against Enterobacter aerogenes NCIM 2239 at 5 ug/disk after 24 hr by disk diffusion method. The settings on record: NCIM 2239, 24 h, read-out: DIZ.
The next test deals with Bacillus subtilis. The test can be described thus: Antibacterial activity against Bacillus subtilis NCIM 2063 at 5 ug/disk after 24 hr by disk diffusion method. The settings on record: NCIM 2063, 24 h, read-out: DIZ.
In a further test the test system is Bacillus cereus. The test can be described thus: Antibacterial activity against Bacillus cereus NCIM 2155 at 5 ug/disk after 24 hr by disk diffusion method. The conditions noted are these: NCIM 2155, 24 h, read-out: DIZ.
The test system of another test is Streptomyces albus. The test can be described thus: Antibacterial activity against Streptomyces albus NCIM 2178 at 5 ug/disk after 24 hr by disk diffusion method. The settings on record: NCIM 2178, 24 h, read-out: DIZ.
For the next test, the system named is Escherichia coli. The test can be described thus: Antibacterial activity against Escherichia coli NCIM 2065 at 5 ug/disk after 24 hr by disk diffusion method. The settings on record: NCIM 2065, 24 h, read-out: DIZ.
Another test concerns Pseudomonas aeruginosa. Kind of test: Antibacterial activity against Pseudomonas aeruginosa NCIM 2200 at 5 ug/disk after 24 hr by disk diffusion method. The settings on record: NCIM 2200, 24 h, read-out: DIZ.

`Clc1ccccc1C(c1ccccc1)(c1ccccc1)n1ccnc1` [CLOTRIMAZOLE]: the zone of inhibition at 10 µg/disc with Aspergillus niger was determined as 16 mm; with Candida albicans, 18 mm; in the test with Lipomyces lipofer, 18 mm; in the test on Aspergillus flavus, 16 mm; in the test with Rhodotorula mucilaginosa it was 17 mm; in the test on Penicillium chrysogenum, 21 mm.

In the case of `CC1COc2c(N3CCN(C)CC3)c(F)cc3c(=O)c(C(=O)O)cn1c23` (configuration not stated) [OFLOXACIN], the zone of inhibition at 5 µg/disc in the test on Klebsiella aerogenes was determined as 21 mm; in the test with Bacillus subtilis, 22 mm; in the test with Bacillus cereus, 19 mm; with Streptomyces albus, 21 mm; in the test on Escherichia coli, 23 mm; in the test with Pseudomonas aeruginosa it was 22 mm.
